How the values were obtained:
eIF2α/ATF4 pathway = assay: Western blot / qRT-PCR of phospho-eIF2α/ATF4 pathway; format: cell-based
Procedure: Western blotting was performed as previously described (Battle T E, Arbiser J, & Frank D A (2005) The natural product honokiol induces caspase dependent apoptosis in B-cell chronic lymphocytic leukemia (B-CLL) cells. Blood 106(2):690-697). Antibodies to phospho-MAPK (9101), total MAPK (9102), phospho-Y705 STAT3 (9131), phospho-S6 (2215), total S6 (2217), phospho-4E-BP1 (9451), total 4E-BP1 (9644), total RSK (9355), phospho-S6K (9234, 85 used at 1:5000), total S6K (2708), phospho-eIF2α (9721, used at 1:1000), total eIF2α (5324), ATF4 (11815, used at 1:1000), PDGFRβ (3169), IGF1Rβ (9750), EGFR (2232), and HER2 (2242) were from Cell Signaling Technology. Phospho-RSK antibody was from R&D (AF889). Antibodies to total STAT3 (sc-482) and gp130 (sc-656, used at 1:1000) were from Santa Cruz Biotechnology. Phospho-S727 STAT3 antibody was described previously (229). REDD1 antibody was from Proteintech (10638-1-AP, used at 1:1000). Antibody recognizing full-length and cleaved ATF6 was from Abcam (ab122897, used at 1:1000). Antibodies to tubulin (T5168) and beta actin (A5316) were from Sigma. All antibodies were used at 1:10000 dilution for western blot unless otherwise noted. For immunoprecipitations, cells were lysed in 500 μl lysis buffer (0.5% NP-40, 150 mM NaCl, 50 mM Tris pH 7.5, with protease and phosphatase inhibitors freshly added at 1:100 [Pierce, PI78443]) on ice for 15 minutes, then centrifuged for 10 minutes at 14,000 RPM and 4° C. The supernatant was transferred to a new tube and incubated with 10 μl JAK2 antibody (Santa Cruz sc-278) or a mix of two TYK2 antibodies, 10 μl of each (Santa Cruz sc-5271 and Cell Signaling Technology 9312). Immunoprecipitation was performed overnight at 4° C. with rotation. The next day, 75 μl of protein A/G beads (Santa Cruz sc-2003) were washed twice in lysis buffer, then incubated with immunoprecipitates overnight as before. The next day, the beads were spun down (1 min. at 7,500 RPM and 4° C.) and washed 3 times with 650 μl lysis buffer for 10 minutes at 4° C. with rotation, then boiled in 50 μl sample buffer+10% β-mercaptoethanol. For Western blot, 20 μl were loaded per lane. For detection of phospho-tyrosine, a mixture of two pan-phospho-tyrosine antibodies (Cell Signaling Technology 9411 and 9416, 1:1000 of each) was used. Antibody to phospho-Y1007/1008 JAK2 was from Cell Signaling 86 Technology (3771, used at 1:1000). Antibody to phospho-Y570 JAK2 was from Millipore (09-241, used at 1:1000). Luminometric Assays Luciferase reporter cell lines were described previously (186). Firefly luciferase values were normalized by concurrent cell viability. Cell viability was measured as ATP-dependent luminescence by Cell Titer Glo (Promega).
In asking how atovaquone induces REDD1, a possible role for ATF4, which regulates REDD1 expression was considered. ATF4 is regulated mainly at the level of translation and is induced upon phosphorylation of eIF2α. […] K562 and AML2 cells, which lack STAT3 activation, were treated with rapamycin for 72 hours. […] For these reasons, it was hypothesized that atovaquone induces eIF2α phosphorylation, with a resulting increase in ATF4 protein and signaling. U266, K562, and SKBR3 cells were treated with atovaquone (20, 20, 25 μM respectively). […] The phospho-eIF2α/ATF4 pathway represents one branch of the UPR, whose other branches consist of ATF6 cleavage and IRE1-mediated XBP1 splicing. […] Thus, atovaquone selectively activates the phospho-eIF2α/ATF4 branch of the UPR. […]

[1] = tested on: acute myeloid leukemia (AML); assay: Retrospective analysis of atovaquone exposure in AML patients after HSCT; format: in vivo, human
Procedure: Atovaquone start and end dates for approximately 500 AML patients who underwent HSCT at Dana-Farber Cancer Institute from 2006-2012 were obtained by chart review of the electronic medical record with DFCI IRB approval. Atovaquone was administered as a suspension, 750 mg twice daily. Due to the intermittent atovaquone dosing for some patients, a discontinuation for longer than 50 days disqualified subsequent atovaquone treatment from counting toward a patient's total atovaquone exposure. Patients who received more than one HSCT were excluded (4% of total patients).
The patient population consisted of AML patients treated with HSCT at the Dana-Farber Cancer Institute and who survived at least 150 days after transplant without relapse. Patients treated with atovaquone for at least 100 days within the 150-day period were classified as “high atovaquone” exposure, while the remaining patients were classified as “low atovaquone” exposure. […] To further investigate the anti-cancer activity of atovaquone in patients, serum samples were collected from patients approximately 100 days following HSCT who were being treated with either TMP-SMX or atovaquone. […] Atovaquone is a colored compound, and its presence in patient plasma is visibly noticeable.

[2] = tested on: JAK family members (TYK2, JAK2); assay: JAK auto-phosphorylation in cells (immunoprecipitation, Western blot); format: cell-based; conditions: U266 15 μM 1 hour (TYK2); HEL 20 μM 6 hours (JAK2)
Procedure: Western blotting was performed as previously described (Battle T E, Arbiser J, & Frank D A (2005) The natural product honokiol induces caspase dependent apoptosis in B-cell chronic lymphocytic leukemia (B-CLL) cells. Blood 106(2):690-697). Antibodies to phospho-MAPK (9101), total MAPK (9102), phospho-Y705 STAT3 (9131), phospho-S6 (2215), total S6 (2217), phospho-4E-BP1 (9451), total 4E-BP1 (9644), total RSK (9355), phospho-S6K (9234, 85 used at 1:5000), total S6K (2708), phospho-eIF2α (9721, used at 1:1000), total eIF2α (5324), ATF4 (11815, used at 1:1000), PDGFRβ (3169), IGF1Rβ (9750), EGFR (2232), and HER2 (2242) were from Cell Signaling Technology. Phospho-RSK antibody was from R&D (AF889). Antibodies to total STAT3 (sc-482) and gp130 (sc-656, used at 1:1000) were from Santa Cruz Biotechnology. […] Cell viability was measured as ATP-dependent luminescence by Cell Titer Glo (Promega).
To understand how atovaquone inhibits STAT3 phosphorylation, the possibility that atovaquone decreases the kinase activity of JAKs, which are responsible for STAT3 activation in the systems previously tested was considered. To assess kinase activity, the extent of kinase auto-phosphorylation, which provides a cellular readout of kinase activity, was first analyzed. […] Due to technical limitations, tyrosine phosphorylation of other JAK family members was not detected in U266 cells. […]

[3] = U266, K562, SKBR3, 20, 20, 25 μM

O=C1C(O)=C([C@H]2CC[C@H](c3ccc(Cl)cc3)CC2)C(=O)c2ccccc21 [atovaquone, trans-2-[4-(4-chlorophenyl)cyclohexyl]-3-hydroxy-1,4-naphthalenedione]
CHAC1 expression (eIF2α/ATF4 pathway): consistently upregulated | CHOP expression (eIF2α/ATF4 pathway): strongly upregulates CHOP | expression of ATF4 mRNA (eIF2α/ATF4 pathway; U266, 15 μM, 2 hours): unchanged | ATF4 protein levels (eIF2α/ATF4 pathway; [3]): increased ATF4 protein levels | eIF2α phosphorylation (eIF2α/ATF4 pathway; [3]): induced eIF2α phosphorylation | relapse-free survival ([1]; "high atovaquone" (at least 100 days within the 150-day period) vs "low atovaquone"): significantly improved relapse-free survival | overall survival ([1]; "high atovaquone" vs "low atovaquone"): trend toward improved overall survival | auto-phosphorylation of JAK family members in cells [2]: inhibited the auto-phosphorylation of JAK family members

Reference: patent US10130590B2, “Methods of treating cancer with atovaquone-related compounds” (DANA-FARBER CANCER INSTITUTE, INC., priority 2013, dated 2018)
